Results from patent publication US20230104936A1, “TRPML MODULATORS” (Casma Therapeutics, Inc., priority 2019, published 2023).

Test system: TFEB
Assay: TFEB nuclear translocation assay, HeLa wt cells
Assay type: cell-based
Settings: 2 hrs compound treatment, Table 1 does not say HeLa wt or TRPML1 KO
Outline: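 Cells are plated overnight, exposed to compounds for 2 hrs at 37° C, fixed with 4% PFA, blocked, and stained overnight at 4° C with rabbit anti-TFEB. After Alexa 488 secondary and Hoechst, nuclei and a perinuclear ring are segmented to give a nuclear:ring intensity ratio and AC50.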

| Compound | AC50 (Homo sapiens, HeLa, 2 h) [µM] | AC50 [µM] |
| --- | --- | --- |
| CN(C)S(=O)(=O)c1ccc(S(=O)(=O)Nc2ccccc2C2=CCN(c3ccc(Cl)cc3F)CC2)cc1 [Compound A-19, N1-(2-(1-(4-chloro-2-fluorophenyl)-1,2,3,6-tetrahydropyridin-4-yl)phenyl)-N4,N4-dimethylbenzene-1,4-disulfonamide] | ≤ 2 | – |
| COc1ccc(S(=O)(=O)Nc2ccccc2N2CCN(C(C)C(F)(F)F)CC2)cc1 (centres unmarked) [Compound A-531, 4-methoxy-N-{2-[4-(1,1,1-trifluoropropan-2-yl)piperazin-1-yl]phenyl}benzene-1-sulfonamide] | ≤ 2 | – |
| Cc1ccc(S(=O)(=O)N(C)c2ccccc2N2CCC(c3ccc(Cl)cc3F)CC2)cc1 [Compound A-107, N-{2-[4-(4-chloro-2-fluorophenyl)piperidin-1-yl]phenyl}-N,4-dimethylbenzene-1-sulfonamide] | ≥ 10 | – |
| COc1ccc(S(=O)(=O)Nc2ccccc2N2CCC(Oc3ccc(F)cc3F)CC2)cc1 [Compound A-196, N-{2-[4-(2,4-difluorophenoxy)piperidin-1-yl]phenyl}-4-methoxybenzene-1-sulfonamide] | ≤ 2 | – |
| COCC1(C)CCN(c2ccccc2NC(C)c2ccc(S(=O)(=O)N(C)C)cc2)CC1 (centres unmarked) [Compound A-490, 4-[1-({2-[4-(methoxymethyl)-4-methylpiperidin-1-yl]phenyl}amino)ethyl]-N,N-dimethylbenzene-1-sulfonamide] | ≥ 10 | – |
| O=C1c2ccccc2S(=O)(=O)N1c1ccccc1N1CCC(c2ccc(Cl)cc2F)CC1 [Compound A-85, 2-{2-[4-(4-chloro-2-fluorophenyl)piperidin-1-yl]phenyl}-2,3-dihydro-1λ^6,2-benzothiazole-1,1,3-trione] | ≥ 10 | – |
| Cc1ccc(CS(=O)(=O)Nc2ccccc2N2CCC3(CC2)COC(C)(C)C3)cc1C [Compound A-663, N-(2-{3,3-dimethyl-2-oxa-8-azaspiro[4.5]decan-8-yl}phenyl)-1-(3,4-dimethylphenyl)methanesulfonamide] | ≤ 2 | – |
| CN(C)S(=O)(=O)c1ccc(S(=O)(=O)Nc2ccccc2N2CCCC23CCOC3)cc1 (centres unmarked) [Compound A-508, N1,N1-dimethyl-N4-(2-{7-oxa-1-azaspiro[4.4]nonan-1-yl}phenyl)benzene-1,4-disulfonamide] | 2.01 to 8 | – |
| CN(C)S(=O)(=O)c1ccc(S(=O)(=O)Nc2ccccc2N2CCN(C(C)(C)C)CC2)cc1 [Compound A-337, N4-[2-(4-tert-butylpiperazin-1-yl)phenyl]-N1,N1-dimethylbenzene-1,4-disulfonamide] | 8.01 to 9.99 | – |
| COCC1(C)CCN(c2ccccc2NS(=O)(=O)c2ccc3c(c2)CC(OC)C3)CC1 (centres unmarked) [Compound A-707, 2-methoxy-N-{2-[4-(methoxymethyl)-4-methylpiperidin-1-yl]phenyl}-2,3-dihydro-1H-indene-5-sulfonamide] | 2.01 to 8 | – |
| CN(C)S(=O)(=O)c1ccc(S(=O)(=O)Nc2ccccc2N2CCC(c3cccc(C(=O)O)c3)CC2)cc1 [Compound A-266, 3-(1-{2-[4-(dimethylsulfamoyl)benzenesulfonamido]phenyl}piperidin-4-yl)benzoic acid] | ≥ 10 | – |
| CCN(CC)CC1CCN(c2ccccc2NS(=O)(=O)c2ccc(S(=O)(=O)N(C)C)cc2)CC1 [Compound A-549, N4-(2-{4-[(diethylamino)methyl]piperidin-1-yl}phenyl)-N1,N1-dimethylbenzene-1,4-disulfonamide] | 2.01 to 8 | – |
| CN(C)S(=O)(=O)c1ccc(S(=O)(=O)Cc2ccccc2N2CCN(C(=O)OCc3ccccc3)CC2)cc1 [Compound A-598, benzyl 4-(2-{[4-(dimethylsulfamoyl)benzenesulfonyl]methyl}phenyl)piperazine-1-carboxylate] | ≤ 2 | – |
| CC(c1cccc(F)c1N1CCCCC1)S(=O)(=O)c1ccc(S(=N)(=O)C(F)F)cc1 (single isomer, unassigned) [Compound A-939, (difluoromethyl)(4-((1-(3-fluoro-2-(piperidin-1-yl)phenyl)ethyl)sulfonyl)phenyl)(imino)-l6-sulfanone] | – | 2.01 to 8 |
